{"source": "paper PMC10721329", "about": "“Quisinostat is a brain-penetrant radiosensitizer in glioblastoma” (JCI Insight, 2023)", "key": {"[1]": {"test": "Total and unbound QST in plasma and normal brain of non-tumor-bearing mice (equilibrium dialysis, LC-MS/MS)", "assay_type": "in vivo, athymic nude mice", "procedure": "Insufficient drug exposure in the brain is a major hurdle in the treatment of brain tumors. […] On the last treatment day, blood and intact brains were harvested 2 hours after dosing with QST (Figure 6E). […] Each brain hemisphere was processed separately to perform matched PK and PD analyses from the same animal. […] For PD analyses, we homogenized entire hemispheres to obtain whole-tissue protein lysates from each mouse and assessed changes in histone H3 acetylation levels using immunoblotting.\nOur study therefore emphasizes the importance of implementing a PK-PD–guided approach when evaluating or developing new drugs for GBM. Although PK analyses are now commonly performed in preclinical trials for a variety of different brain tumors, these studies typically measure only the total brain-to-plasma concentration ratio as a measure of drug-brain penetration ([74]–[76]). […] Therefore, we employed an equilibrium dialysis method combined with LC-MS/MS analysis to measure the unbound brain-to-plasma concentration, which represents the pharmacologically active fraction of a drug. A crucial finding in our study was the species-specific differences in QST stability. […] A recent study reported that hydroxamic acids such as QST are common substrates of a family of esterases (carboxylesterases) that are abundantly present in rodent plasma but absent in human plasma ([34], [78]). We confirmed that the addition of BNPP, a specific inhibitor of carboxylesterases, stabilized QST in mouse plasma. Our results therefore highlight a large discrepancy in the metabolic stability between rodent and human species. This is an important consideration for translating preclinical studies to the clinic because such differences may hinder further clinical development of promising drug candidates. Our data will thereby serve as a valuable resource and note of caution for future preclinical studies employing QST or similar drugs with species-specific stability.\nQST concentrations in specimens were measured using reverse-phase LC on the AB SCIEX QTRAP6500+ LC-MS/MS system by operating electrospray in the positive ion mode. For liquid chromatographic separation, gradient elution was performed using a Phenomenex Kinetex F5 100 Å column (100 × 2.1 mm, 2.6 μm). The initial composition of the mobile phase was 70% phase A (0.1% formic acid in water) and 30% phase B (0.1% formic acid in 1:1 acetonitrile/methanol) with a 0.35 mL/min flow rate. Gradient elution was achieved as follows: mobile phase (B) was maintained at 30% from 0 to 0.3 minutes, increased to 95% from 0.3 to 0.8 minutes, maintained at 95% from 0.8 to 2.5 minutes, and decreased to 30% from 2.5 to 2.8 minutes. The total run time was 3.5 minutes. The internal standard used in this study was D8-infigratinib. The retention times for QST and D8-infigratinib were 1.6 and 1.8 minutes, respectively. Mass-to-charge ratio transitions were as follows: 395.20 → 144.00 (QST) and 568.08 → 321.00 (D8-infigratinib). LC-MS/MS analysis was performed using an Analyst 1.7 Chromatographic Data System. See Supplemental Methods for detailed PK experiments. […]\nvortex-mixed for 10 s and centrifuged at 12000 g at 4 °C for 10 min. A 100-µL aliquot of the supernatant was transferred to an autosampler vial, and 5 µL was injected into the LC-MS/MS system for analysis. Whenever necessary, appropriate dilutions were made to accommodate the analysis of small volume samples.\nBrain and Brain Tumor Sample Preparation\nNormal brain and brain tumor tissue homogenates were prepared by 1:4 (mass/volume) ratio with PBS. Samples were homogenized under 6.00 m/s speed for 40 seconds with 3 cycles by Bead Ruptor Elite homogenizer (Omni International). Plasma was used as a surrogate matrix for brain/tumor homogenate. Brain homogenate samples from in vivo studies were prepared as described for plasma samples. Analyte and IS were extracted by protein precipitation with methanol containing IS. After centrifugation at 12000 rpm for 10 minutes at 4 °C, 5 µL of […]"}, "[2]": {"test_system": "HDAC1", "settings": "cited from earlier work"}, "[3]": {"settings": "normal mice, individual mice, n=6"}}, "note": "Values joined by “and” are separate entries in the source; they are usually repeats but may differ in a detail not shown here. Equal values may be shown once. Read-outs that look alike come from different tables or passages of the source."}
{"smiles": "Cn1cc(CNCC2CCN(c3ncc(C(=O)NO)cn3)CC2)c2ccccc21", "note": "[QST, quisinostat]", "values": [{"measurement": "mean unbound QST level, fold lower in brain than in plasma", "setting": "[1]; 10 mg/kg IP MWF 2 weeks, 2 hours after last dose", "value": "[…]"}, {"measurement": "concentration at 2 h", "setting": "[1]; athymic nude, mouse, brain, intraperitoneal, 10 mg/kg, normal mouse brains, individual mice, n=6, read-out: Total QST, brain", "value": 45.3, "unit": "nM"}, {"measurement": "concentration at 2 h", "setting": "[1]; athymic nude, mouse, brain, intraperitoneal, 10 mg/kg, normal mouse brains, individual mice, n=6, read-out: Unbound QST, brain", "value": 1.65, "unit": "nM"}, {"measurement": "concentration at 2 h", "setting": "[1]; athymic nude, mouse, brain, ip, 10 mg/kg, normal brain, 10 mg/kg IP MWF 2 weeks, 2 hours after last dose, read-out: unbound drug concentration in the brain", "value": "~1.7", "unit": "nM"}, {"measurement": "Total QST, plasma", "setting": "[1]; [3]", "value": "464.014 nM and 281.833 nM and 297.864 nM and 455.378 nM and 301.853 nM and 226.232 nM"}, {"measurement": "UNBOUND [QST], Plasma", "setting": "[1]; [3]", "value": "117.95 nM and 180.33 nM and 119.53 nM and 89.59 nM and 183.75 nM and 111.61 nM"}, {"measurement": "concentration at 2 h", "setting": "[1]; normal mouse brains, individual mice, n=6, read-out: Total QST, brain", "value": "26.24 nM and 32.91 nM and 41.935 nM and 27.27 nM and 31.45 nM"}, {"measurement": "concentration at 2 h", "setting": "[1]; normal mouse brains, individual mice, n=6, read-out: Unbound QST, brain", "value": "2.1 nM and 1.36 nM and 1.57 nM and 2.27 nM and 1.31 nM"}, {"measurement": "IC50", "setting": "[2]", "value": "[…]"}]}
